Measurements from patent publication US5130474A, “Optically-active derivatives of (R) 5-pentylamino-5-oxopentanoic acid with antagonistic activity towards cholecystokin in and a method for their preparation” (Rotta Research Laboratorium SpA, priority 1987, dated 1992).
pIC50: −log10 of the molar value. Read-outs that look alike come from different tables or passages of the source.

How the values were obtained:
[1] = test system: experimental pancreatitis induced by taurocholate; experiment: Pancreatitis induced by sodium taurocholate; assay type: in vivo, rats; settings: for ED50: Rattus norvegicus, ip, 6 h
Method: The method described by Aho et al. (Scandinavian J. Gastroenterology 15 (1980), 411-16) was followed
Male rats weighing approximately 250 g were subjected to laparatomy and the pancreas exposed. 0.3 ml of a 6% solution of sodium taurocholate was injected directly into the pancreatic tissue.
The products under test were administered intraperitoneally (i.p.) 30 minutes before the operation and 3 hours after the operation. 6 hours after the laparotomy and after anesthesia with ether, blood was removed from the retro-orbital plexus, the animals were killed and the pancreas removed and weighed. The activity of the serum amylase was determined by the Ceska method (Clin. Chim. Acta 26 (1969), 437-444).
The compounds were tested at different doses so as to enable the calculation of the ID50 value, that is the dose (in mg/kg i.p.) which is able to inhibit the toxic effect of the sodium taurocholate by 50%, expressed both as a % inhibition of the increase in weight of the pancreas and as a % inhibition of the increase in serum amylase.

[2] = test system: gallbladder contraction induced by egg yolk; experiment: Antispastic activity on the gallbladder in mice (gallbladder emptying induced by egg yolk); assay type: in vivo; settings: for ED50: Mus musculus, ip, read-out: ID50, antispastic activity on gallbladder contraction induced by egg yolk
Method: The emptying of the gallbladder was induced by a single oral administration of 1 ml of a 30% suspension (weight/volume) of lyophilised egg yolk in a physiological solution.
Once it has been absorbed, the egg yolk, as stated above, induces the release of endogenous CCK.
The antagonist compounds were administered intraperitoneally (i.p.) 15 minutes before the contractant.
The % antispastic activity for each dose was calculated by the following formula: [formula] where P1 =average weight of the gallbladders of the group of animals treated with the drug plus the contractant
P2 =average weight of the gallbladders of the group of animals treated with contractant only
P3 =average weight of the gallbladders of the control group of animals.

[3] = test system: piloric contraction induced by CCK; experiment: Antispastic activity on piloric contraction induced by CCK in rats; assay type: in vivo, rat; settings: for ED50: ip, rat, 8 mcg/kg i.p. CCK, compound i.p. 15 minutes before, read-out: ID50, antispastic activity on piloric contraction induced by CCK
Method: A dose of 8 mcg/kg i.p. of CCK was used, which induces a sub-maximal contraction of the pilorus.
The antagonistic compounds were administered (i.p.) 15 minutes before the contractant. 10 minutes after the administration of the contractant, the animals were treated per os with 25 ml/kg of H2 O. 5 minutes after this administration, the animals were killed, their stomachs removed and the gastric content measured by removal with a syringe.
The % antispactic activity for each dose administered was calculated from the following formula: [formula] where V1 =the gastric-content volume of the group of animals treated with the drug plus the contractant
V2 =the gastric-content volume of the group of animals treated with the contractant only
V3 =the gastric-content volume of the control group of animals.
The compounds were tested at various doses so as to enable the calculation of the ID50 value, that is the dose (in mg/kg i.p.) which is able to inhibit the contractant effect of CCK by 50%.
The results obtained are given in Table 7, where the effects obtained are expressed as the ID50.

[4] = biological target: T1, cholecystokinin receptors of ox gallbladder membranes (Bos taurus, UniProt A6QLH2); experiment: Inhibition of the binding of [125-I]-Bolton Hunter-CCK-8 to ox gallbladder membranes; settings: pH 7.4, 2 h at 25° C., read-out: IC50, inhibition of the binding of (^125 I)-(B-H)-CCK-8
T1 construct: The ox gallbladder cell membranes were homogenised with Tris buffer (pH 7.4); from tissue; host or cells: ox gallbladder cell membranes
T1 sequence (A6QLH2 1-427): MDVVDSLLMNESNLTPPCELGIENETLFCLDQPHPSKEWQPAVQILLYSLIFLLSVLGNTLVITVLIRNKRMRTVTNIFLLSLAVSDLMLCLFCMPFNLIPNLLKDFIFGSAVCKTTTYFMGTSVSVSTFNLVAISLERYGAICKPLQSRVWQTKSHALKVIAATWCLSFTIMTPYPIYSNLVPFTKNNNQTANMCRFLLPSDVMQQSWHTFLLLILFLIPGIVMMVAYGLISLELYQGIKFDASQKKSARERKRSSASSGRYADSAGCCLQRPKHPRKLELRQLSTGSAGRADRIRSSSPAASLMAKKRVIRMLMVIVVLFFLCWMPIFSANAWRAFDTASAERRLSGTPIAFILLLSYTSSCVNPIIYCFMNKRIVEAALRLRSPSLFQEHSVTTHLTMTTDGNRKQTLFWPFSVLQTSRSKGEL
Method: The ox gallbladder cell membranes were homogenised with Tris buffer (pH 7.4) and the homogenate was centrifuged at 50,000 gravity for 10 minutes. The membranes were then incubated with a radioactive tracer and the compounds under study for 2 h at 25° C.
After the supernatant liquid had been discarded, the radioactivity associated with the pellet was determined with a liquid scintillator. The specific binding was determined as the difference between the binding in the absence and in the presence of 10^-6 M CCK-8.

[5] = 30 min before and 3 h after operation, read-out: ID50, inhibition of the increase in serum amylase
[6] = 30 min before and 3 h after operation, read-out: ID50, inhibition of the increase in weight of the pancreas
[7] = mice, i.p. 15 minutes before egg yolk
[8] = 5 mg/kg i.p. (second dose of compound 8) + taurocholate
[9] = 5 mg/kg i.p. (third dose of compound 8) + taurocholate

CCCCCN(CCCCC)C(=O)[C@@H](CCC(=O)O)NC(=O)c1ccc2ccccc2c1 [Compound 7]
% inhibition increase in amylase ([1]; 0.3 mg/kg i.p. + taurocholate): 42.2%
% inhibition of weight increase (pancreas) ([1]; 0.3 mg/kg i.p. + taurocholate): 36.4%
% ratio pancreas weight / animal weight ([1]; 0.3 mg/kg i.p. + taurocholate): 0.47%
Amylase in the serum ([1]; 0.3 mg/kg i.p. + taurocholate): 12.0 U/ml
% inhibition increase in amylase ([1]; 1 mg/kg i.p. + taurocholate): 79.7%
% inhibition of weight increase (pancreas) ([1]; 1 mg/kg i.p. + taurocholate): 54.5%
% ratio pancreas weight / animal weight ([1]; 1 mg/kg i.p. + taurocholate): 0.45%
Amylase in the serum ([1]; 1 mg/kg i.p. + taurocholate): 9.6 U/ml
% inhibition increase in amylase ([1]; 3 mg/kg i.p. + taurocholate): 89.0%
% inhibition of weight increase (pancreas) ([1]; 3 mg/kg i.p. + taurocholate): 90.8%
% ratio pancreas weight / animal weight ([1]; 3 mg/kg i.p. + taurocholate): 0.41%
Amylase in the serum ([1]; 3 mg/kg i.p. + taurocholate): 9.0 U/ml
ED50 ([1]; both parameters, read-out: dose inhibiting the increase in weight of the pancreas and the increase in serum amylase by 50%): ~0.5 mg/kg
ED50 [1, 5]: 0.4 mg/kg
ED50 [1, 6]: 0.6 mg/kg
% inhibition of the emptying of the gallbladder ([2]; 0.025 mg/kg i.p.): 24.0%
% inhibition of the emptying of the gallbladder ([2]; 0.05 mg/kg i.p.): 44.2%
ED50 [2, 7]: 0.05 mg/kg
% inhibition of piloric contraction ([3]; 0.01 mg/kg i.p.): 27.7%
% inhibition of piloric contraction ([3]; 0.03 mg/kg i.p.): 48.8%
% inhibition of piloric contraction ([3]; 0.1 mg/kg i.p.): 80.8%
ED50 [3]: 0.03 mg/kg
pIC50 [4]: 9.00

CCCCCN(CCCCC)C(=O)[C@@H](CCC(=O)O)NC(=O)c1ccc(Cl)c(Cl)c1 [Compound 8]
% inhibition increase in amylase ([1]; 1 mg/kg i.p. + taurocholate): 40.7%
% inhibition of weight increase (pancreas) ([1]; 1 mg/kg i.p. + taurocholate): 35.3%
% ratio pancreas weight / animal weight ([1]; 1 mg/kg i.p. + taurocholate): 0.48%
Amylase in the serum ([1]; 1 mg/kg i.p. + taurocholate): 12.7 U/ml
% inhibition increase in amylase [1, 8]: 76.5%
% inhibition of weight increase (pancreas) [1, 8]: 52.5%
% ratio pancreas weight / animal weight [1, 8]: 0.45%
Amylase in the serum [1, 8]: 9.8 U/ml
% inhibition increase in amylase [1, 9]: 86.4%
% inhibition of weight increase (pancreas) [1, 9]: 82.3%
% ratio pancreas weight / animal weight [1, 9]: 0.40%
Amylase in the serum [1, 9]: 9.0 U/ml
ED50 [1, 5]: 1.2 mg/kg
ED50 [1, 6]: 1.8 mg/kg
% inhibition of the emptying of the gallbladder ([2]; 0.1 mg/kg i.p.): 25.2%
% inhibition of the emptying of the gallbladder ([2]; 0.1 mg/kg i.p. as printed (third, highest dose of compound 8)): 86.3%
% inhibition of the emptying of the gallbladder ([2]; 0.3 mg/kg i.p.): 53.2%
ED50 [2, 7]: 0.25 mg/kg
% inhibition of piloric contraction ([3]; 0.03 mg/kg i.p.): 29.8%
% inhibition of piloric contraction ([3]; 0.1 mg/kg i.p.): 48.0%
% inhibition of piloric contraction ([3]; 0.3 mg/kg i.p.): 68.1%
ED50 [3]: 0.11 mg/kg
pIC50 [4]: 8.12

CCCCCN(CCCCC)C(=O)[C@@H](CCC(=O)O)NC(=O)c1ccc(C)c(C)c1 [Compound 9]
pIC50 [4]: 7.36

CCCCCN(CCCOC)C(=O)[C@@H](CCC(=O)O)NC(=O)c1ccc2ccccc2c1 [Compound 10]
pIC50 [4]: 8.21

CCCCCN(CCCOC)C(=O)[C@@H](CCC(=O)O)NC(=O)c1ccc(Cl)c(Cl)c1 [Compound 11]
pIC50 [4]: 7.52

CCCCCN(CCOCC)C(=O)[C@@H](CCC(=O)O)NC(=O)c1ccc2ccccc2c1 [Compound 12]
pIC50 [4]: 8.03

CCCCCN(CCCCC)C(=O)[C@H](CCC(=O)O)NC(=O)c1ccc2ccccc2c1 [Compound 13]
% inhibition of the emptying of the gallbladder ([2]; 1 mg/kg i.p.): 18.8%
% inhibition of the emptying of the gallbladder ([2]; 3 mg/kg i.p.): 47.7%
% inhibition of the emptying of the gallbladder ([2]; 9 mg/kg i.p.): 80.2%
ED50 [2, 7]: 3.2 mg/kg
% inhibition of piloric contraction ([3]; 1 mg/kg i.p.): 17.7%
% inhibition of piloric contraction ([3]; 3 mg/kg i.p.): 39.0%
% inhibition of piloric contraction ([3]; 5 mg/kg i.p.): 54.2%
ED50 [3]: 4.55 mg/kg
active dose, times higher than compound 7 ([3]; piloric contraction): approximately 150 times
pIC50 [4]: 7.21

CCCCCN(CCCCC)C(=O)[C@H](CCC(=O)O)NC(=O)c1ccc(Cl)c(Cl)c1 [Compound 14]
pIC50 [4]: 6.35

CCCCCN(CCCCC)C(=O)[C@H](CCC(=O)O)NC(=O)c1ccc(C)c(C)c1 [Compound 15]
pIC50 [4]: 5.66

CCCCCN(CCCOC)C(=O)[C@H](CCC(=O)O)NC(=O)c1ccc2ccccc2c1 [Compound 16]
pIC50 [4]: 6.25

COc1ccc(Cc2nccc3cc(OC)c(OC)cc23)cc1OC [PAPAVERINE, reference compound]
% inhibition of the emptying of the gallbladder ([2]; 25 mg/kg i.p.): 0%
% inhibition of the emptying of the gallbladder ([2]; 50 mg/kg i.p.): 0%
% inhibition of the emptying of the gallbladder ([2]; 75 mg/kg i.p.): 26.1%
ID50, antispastic activity on gallbladder contraction induced by egg yolk [2, 7]: INACTIVE
antispastic activity on the gallbladder, in words ([2]; only at 75 mg/kg): slightly active

CCK-8: cold (unmarked) CCK [reference compound]
pIC50 [4]: 9.70
